Our source for the inhibition of growth and growth values is ChEMBL document CHEMBL2413072, “Synthesis and in vitro anticancer studies of novel C-2 arylidene congeners of lantadenes” (2013).

Common to all, as to format: functional
The test system of one experiment is RXF 393. The experiment is described as follows: Growth inhibition of human RXF393 cells assessed as growth inhibition at 10 uM by sulforhodamine B assay. The conditions noted are these: read-out: GI. (In general: In SRB staining, fixed cells bind dye roughly in proportion to their protein.)
The test system of the next experiment is HL-60(TB). The experiment is described as follows: Growth inhibition of human HL-60(TB) cells assessed as cell growth at 10 uM by sulforhodamine B assay. As to conditions: read-out: Activity.
Another experiment deals with CCRF-CEM. Description: Growth inhibition of human CCRF-CEM cells assessed as cell growth at 10 uM by sulforhodamine B assay. The conditions noted are these: read-out: Activity.
The test system of another experiment is OVCAR-3. Description: Growth inhibition of human OVCAR3 cells assessed as growth inhibition at 10 uM by sulforhodamine B assay. The conditions noted are these: read-out: GI.
In a further experiment the test system is SK-MEL-2. Description: Growth inhibition of human SK-MEL-2 cells assessed as growth inhibition at 10 uM by sulforhodamine B assay. The conditions noted are these: read-out: GI.
A further experiment deals with SK-MEL-28. Description: Growth inhibition of human SK-MEL-28 cells assessed as growth inhibition at 10 uM by sulforhodamine B assay. As to conditions: read-out: GI.
Another experiment concerns SNB-19. The experiment is described as follows: Growth inhibition of human SNB19 cells assessed as growth inhibition at 10 uM by sulforhodamine B assay. As to conditions: read-out: GI.
For experiment [1], the system named is KM12. The experiment is described as follows: Growth inhibition of human KM12 cells assessed as growth inhibition at 10 uM by sulforhodamine B assay. The conditions noted are these: read-out: GI.
Experiment [2] is described as follows: Growth inhibition of human HCC2998 cells assessed as growth inhibition at 10 uM by sulforhodamine B assay. As to conditions: HCC 2998, read-out: GI.
Another experiment concerns HOP-92. The experiment is described as follows: Growth inhibition of human HOP92 cells assessed as growth inhibition at 10 uM by sulforhodamine B assay. As to conditions: read-out: GI.
A short description of experiment [3]: Growth inhibition of human EKVX cells assessed as growth inhibition at 10 uM by sulforhodamine B assay. As to conditions: read-out: GI.
The test system of a further experiment is A549. The experiment is described as follows: Growth inhibition of human A549/ATCC cells assessed as growth inhibition at 10 uM by sulforhodamine B assay. The conditions noted are these: read-out: GI.
The next experiment has as its system BT-549. Description: Growth inhibition of human BT549 cells assessed as cell growth at 10 uM by sulforhodamine B assay. The conditions noted are these: read-out: Activity.
The next experiment concerns PC-3. Description: Growth inhibition of human PC3 cells assessed as cell growth at 10 uM by sulforhodamine B assay. The conditions noted are these: read-out: Activity.
The subject of a further experiment is TK-10. The experiment is described as follows: Growth inhibition of human TK10 cells assessed as cell growth at 10 uM by sulforhodamine B assay. The conditions noted are these: read-out: Activity.
In a further experiment the test system is OVCAR-5. The experiment is described as follows: Growth inhibition of human OVCAR5 cells assessed as cell growth at 10 uM by sulforhodamine B assay. The conditions noted are these: read-out: Activity.
The subject of the next experiment is MDA-MB-435. The experiment is described as follows: Growth inhibition of human MDA-MB-435 cells assessed as cell growth at 10 uM by sulforhodamine B assay. The conditions noted are these: read-out: Activity.
A further experiment concerns LOX IMVI. The experiment is described as follows: Growth inhibition of human LOXIMVI cells assessed as cell growth at 10 uM by sulforhodamine B assay. As to conditions: read-out: Activity.
For experiment [4], the system named is KM12. The experiment is described as follows: Growth inhibition of human KM12 cells assessed as cell growth at 10 uM by sulforhodamine B assay. The conditions noted are these: read-out: Activity.
A further experiment deals with HCT-116. The experiment is described as follows: Growth inhibition of human HCT116 cells assessed as cell growth at 10 uM by sulforhodamine B assay. The conditions noted are these: read-out: Activity.
Experiment [5] can be described thus: Growth inhibition of human EKVX cells assessed as cell growth at 10 uM by sulforhodamine B assay. The conditions noted are these: read-out: Activity.
Another experiment concerns RPMI-8226. The experiment is described as follows: Growth inhibition of human RPMI8226 cells assessed as cell growth at 10 uM by sulforhodamine B assay. As to conditions: read-out: Activity.

On to `COc1cc(/C=C2\C[C@]3(C)[C@H]4CC=C5[C@@H]6CC(C)(C)C[C@@H](O)[C@]6(C(=O)O)CC[C@@]5(C)[C@]4(C)CC[C@H]3C(C)(C)C2=O)ccc1O`, for which the inhibition of growth at 10 µM in the experiment with RXF 393 is under 10%; with OVCAR-3, under 10%; in the experiment on SK-MEL-2, under 10%; in the experiment with SK-MEL-28, under 10%; in the experiment with SNB-19, under 10%; with KM12 [1], 16%. Besides, the inhibition of growth at 10 µM in [2] is under 10%; in the experiment with HOP-92 it was 29.1%; in [3], 11.5%; with A549, 28.2%. Besides, the growth at 10 µM with HL-60(TB) is 71.1%; with CCRF-CEM, 82%; with BT-549, 106%; in the experiment on PC-3, 72.2%; in the experiment on TK-10, 116%; with OVCAR-5, 105%. Also, the growth at 10 µM was 97.7% in the experiment on MDA-MB-435; 88.4% in the experiment with LOX IMVI; 84% with KM12 [4]; 84.8% with HCT-116; 88.5% in experiment [5]; 59.5% in the experiment with RPMI-8226.
